US11229664B2, “Treatment of myelosuppression” (priority 2012, dated 2022)
Where “and” joins values, the source holds several entries; their conditions need not be identical. Identical values can stand only once.

Test system: neutrophils
Test: Clinical trial, metastatic pancreatic cancer: absolute neutrophil count / neutropenia grade
Format: in vivo, human
Set-up: Neutrophil count: unit not given here
Settings: for Neutrophil Values / Neutrophil count: individual patients; for Neutrophil Values: ODSH adjunctive to gemcitabine and nab-paclitaxel; for Neutrophil count: randomized stage
From the text: Male and non-pregnant, non-lactating, female patients, aged 18 to 75, with histologically confirmed metastatic adenocarcinoma of the pancreas were enrolled in the trial. […] Treatment consisted of a series of 28-day cycles, wherein the last day of one cycle (e.g., day 28, cycle 1) was immediately followed by the first day of the next cycle (e.g., day 1, cycle 2). […] Nab-paclitaxel and gemcitabine therapy was given as described in the prescribing information for Abraxane® and Gemzar®. See also, Von Hoff et al., 2011, J. […] As a substantially non-anticoagulant heparinoid, ODSH can be administered at a dose that is greater than the fully anticoagulant dose of unfractionated heparin, without concern for anticoagulant effect, as shown in the Results below. An initial run-in period was conducted in which ten patients were treated with the gemcitabine, nab-paclitaxel, and ODSH regimen described above. After all ten patients had completed at least one 28-day cycle, the data were reviewed and an open-label randomized study initiated, with two arms (ODSH arm and Control arm). In the ODSH arm, the dosing regimen was the same as in the run-in period (gemcitabine, nab-paclitaxel, and ODSH). In the Control arm, patients were given the same gemcitabine and nab-paclitaxel regimen as in the run-in period, but without ODSH. […] Platelet counts, total white blood cell counts, and absolute neutrophil counts were performed. Grading of thrombocytopenia and/or neutropenia was performed according to the following standards: [table]

[1] = ODSH adjunct to gemcitabine/nab-paclitaxel

Substance: substantially 2-O, 3-O desulfated heparin [ODSH]
- Patients with increased or unchanged neutrophil counts on first day of second cycle vs first day of first cycle [1]: Five out of 10
- Patients with normal neutrophil counts at the start of the fourth cycle [1]: 10 out of 10
- Patients with normal neutrophil counts at the start of the third cycle [1]: 8 out of 9
- Patients with normal neutrophil counts on the first day of the second treatment cycle [1]: Eight out of 10
- Mean and median absolute neutrophil counts on the first day of treatment cycles 2 and 3 (all samples (FIG. 10B), ODSH adjunct to gemcitabine/nab-paclitaxel): above 2,000
- Patients with no more than mild neutropenia after two doses of treatment (day 15, first cycle, ODSH adjunct to gemcitabine/nab-paclitaxel): 44%
- Patients with no more than mild neutropenia after five or eight doses of treatment (day 15 of cycle 2 or day 15 of cycle 3, ODSH adjunct to gemcitabine/nab-paclitaxel): 7 out of 10
- Neutrophil Values (Cycle 1 Day 1 (before treatment)): 4.3 ×10^3/μl blood (2×) and 3.6 ×10^3/μl blood (2×) and 5.5 ×10^3/μl blood and 2.1 ×10^3/μl blood and 3.3 ×10^3/μl blood
- Neutrophil Values (Cycle 1 Day 8): 1.3 ×10^3/μl blood and 2.1 ×10^3/μl blood and 4.3 ×10^3/μl blood and 0.5 ×10^3/μl blood and 3.0 ×10^3/μl blood and 1.5 ×10^3/μl blood
- Neutrophil Values (Cycle 1 Day 15): 0.7 ×10^3/μl blood (2×) and 1.6 ×10^3/μl blood and 3.6 ×10^3/μl blood and 3.5 ×10^3/μl blood and 1.0 ×10^3/μl blood
- Neutrophil Values (Cycle 2 Day 1): 7.3 ×10^3/μl blood and 1.6 ×10^3/μl blood and 4.6 ×10^3/μl blood and 13.0 ×10^3/μl blood and 2.1 ×10^3/μl blood and 6.0 ×10^3/μl blood and 3.6 ×10^3/μl blood
- Neutrophil Values (Cycle 2 Day 8): 3.8 ×10^3/μl blood and 2.6 ×10^3/μl blood and 3.7 ×10^3/μl blood (2×) and 6.3 ×10^3/μl blood and 1.3 ×10^3/μl blood and 1.9 ×10^3/μl blood
- Neutrophil Values (Cycle 2 Day 15): 1.8 ×10^3/μl blood and 1.7 ×10^3/μl blood and 3.8 ×10^3/μl blood and 0.7 ×10^3/μl blood and 1.5 ×10^3/μl blood and 1.1 ×10^3/μl blood and 1.0 ×10^3/μl blood
- Neutrophil Values (Cycle 3 Day 1): 2.7 ×10^3/μl blood and 2.8 ×10^3/μl blood and 2.2 ×10^3/μl blood and 3.9 ×10^3/μl blood and 1.8 ×10^3/μl blood and 3.2 ×10^3/μl blood
- Neutrophil Values (Cycle 3 Day 8): 1.6 ×10^3/μl blood and 4.2 ×10^3/μl blood and 6.8 ×10^3/μl blood and 3.9 ×10^3/μl blood and 1.4 ×10^3/μl blood (2×)
- Neutrophil Values (Cycle 3 Day 15): 1.5 ×10^3/μl blood (2×) and 1.8 ×10^3/μl blood and 4.5 ×10^3/μl blood and 1.4 ×10^3/μl blood and 0.8 ×10^3/μl blood and 2.6 ×10^3/μl blood
- Neutrophil Values (Cycle 4 Day 1): 2.2 ×10^3/μl blood and 5.2 ×10^3/μl blood and 5.7 ×10^3/μl blood and 5.9 ×10^3/μl blood and 3.5 ×10^3/μl blood and 3.2 ×10^3/μl blood and 2.7 ×10^3/μl blood
- Neutrophil Values (Cycle 4 Day 8): 2.5 ×10^3/μl blood and 2.7 ×10^3/μl blood and 2.2 ×10^3/μl blood and 2.0 ×10^3/μl blood and 1.4 ×10^3/μl blood
- Neutrophil Values (Cycle 4 Day 15): 4.6 ×10^3/μl blood and 2.4 ×10^3/μl blood and 3.4 ×10^3/μl blood and 0.7 ×10^3/μl blood and 1.7 ×10^3/μl blood
- Neutrophil Values (Cycle 5 Day 1): 1.6 ×10^3/μl blood and 3.2 ×10^3/μl blood and 3.3 ×10^3/μl blood and 23.2 ×10^3/μl blood
- Neutrophil Values (Cycle 5 Day 8): 2.1 ×10^3/μl blood and 3.4 ×10^3/μl blood and 1.6 ×10^3/μl blood and 4.1 ×10^3/μl blood
- Neutrophil Values (Cycle 5 Day 15): 0.8 ×10^3/μl blood and 3.9 ×10^3/μl blood and 1.1 ×10^3/μl blood
- Neutrophil Values (Cycle 6 Day 1): 13.5 ×10^3/μl blood and 2.3 ×10^3/μl blood
- Neutrophil Values (Cycle 6 Day 8): 1.3 ×10^3/μl blood and 1.2 ×10^3/μl blood
- Neutrophil Values (Cycle 6 Day 15): 1.7 ×10^3/μl blood and 10.7 ×10^3/μl blood
- Neutrophil Values (Screen): 5.6 ×10^3/μl blood and 5.9 ×10^3/μl blood and 4.0 ×10^3/μl blood (2×) and 5.3 ×10^3/μl blood and 4.3 ×10^3/μl blood and 9.3 ×10^3/μl blood
- Neutrophil count (Cycle 1 Day 15): 2.4 and 1.4 and 4.0 (2×) and 0.8 and 4.7 and 3.0 and 0.3
- Neutrophil count (Cycle 2 Day 15): 1.8 (2×) and 1.6 and 0.8 and 3.7 (2×)
- Neutrophil count (Cycle 3 Day 15): 1.0 and 1.6 and 0.8 and 5.4
- Neutrophil count (Cycle 4 Day 15): 4.8 and 4.1
